Assay: Stability test of the crystal forms (HPLC impurity content)
Type: physicochemical
Conditions: for Stability, conclusion in words: stress conditions (high temperature, high humidity, light)
Protocol: The method for High Performance Liquid Chromatograph (HPLC) in the present disclosure
Instrument Model: Agilent 1200 High Performance Liquid Chromatograph
The analysis method is as follows: […]
About 10 mg of the crystal form B of the compound represented by formula (II) was weighted and placed under stability test conditions, and the samples were collected and analyzed after 5 days, 10 days, and 1 month.
About 10 mg of the crystal form C of the compound represented by formula (III) was weighted and placed under stability test conditions, and the samples were collected and analyzed after 5 days, 10 days, and 1 month respectively.

[1] = form C, Light (total illuminance = 1.2 × 106 Lux · hr/near ultraviolet = 200 w · hr/m^2)
[2] = form B, 40° C. relative humidity 75%, 1 month
[3] = form B, 40° C. relative humidity 75%, 10 days
[4] = form B, 60° C. relative humidity 75%, 1 month
[5] = form B, 60° C. relative humidity 75%, 10 days
[6] = form B, Light (total illuminance = 1.2 × 106 Lux · hr/near ultraviolet = 200 w · hr/m^2)
[7] = form B, Relative humidity 92.5%, 1 month
[8] = form B, Relative humidity 92.5%, 5 days
[9] = form B, Relative humidity 92.5%, 10 days

## C[C@H](c1cccc(-c2ncc(OCC3CCN(C)CC3)cn2)c1)n1cc(-c2cc(C#N)ccn2)cc(F)c1=O [crystal form C of the compound represented by formula (III)]
Form C, 0 day
  Total impurities: 2.22%
Form C, 40° C. Relative humidity 75%, 1 month
  Total impurities: 2.31%
Form C, 40° C. Relative humidity 75%, 10 days
  Total impurities: 2.26%
Form C, 60° C. Relative humidity 75%, 1 month
  Total impurities: 12.75%
Form C, 60° C. Relative humidity 75%, 10 days
  Total impurities: 6.04%
Form C, 60° C., 1 month
  Total impurities: 2.35%
Form C, 60° C., 5 days
  Total impurities: 2.27%
Form C, 60° C., 10 days
  Total impurities: 2.35%
[1]
  Impurity content, relative retention time 0.45 (column inferred): 0.05%
  Impurity content, relative retention time 0.7 (column inferred): 0.12%
  Impurity content, relative retention time 0.75 (column inferred): 0.05%
  Impurity content, relative retention time 0.87 or 0.94 (column inferred): 0.24%
  Total impurities: 2.94%
Form C, Relative humidity 92.5%, 1 month
  Total impurities: 2.28%
Form C, Relative humidity 92.5%, 5 days
  Total impurities: 2.29%
Form C, Relative humidity 92.5%, 10 days
  Total impurities: 2.22%
  Stability, conclusion in words: relatively stable under high temperature and high humidity conditions

## C[C@H](c1cccc(-c2ncc(OCC3CCN(C)CC3)cn2)c1)n1cc(-c2cc(C#N)ccn2)cc(F)c1=O.Cl
Form B, 0 day
  Impurity content, relative retention time 0.77: 0.05%
  Impurity content, relative retention time 1.04: 2.18%
  Total impurities: 2.24%
[2]
  Impurity content, relative retention time 0.77: 0.23%
  Impurity content, relative retention time 1.04: 1.95%
  Total impurities: 2.18%
[3]
  Impurity content, relative retention time 0.77: 0.18%
  Impurity content, relative retention time 1.04: 2.02%
  Total impurities: 2.2%
[4]
  Impurity content, relative retention time 0.77: 0.36%
  Impurity content, relative retention time 1.04: 1.76%
  Total impurities: 2.12%
[5]
  Impurity content, relative retention time 0.77: 0.42%
  Impurity content, relative retention time 1.04: 1.72%
  Total impurities: 2.13%
Form B, 60° C., 1 month
  Impurity content, relative retention time 0.77: 0.05%
  Impurity content, relative retention time 1.04: 2.27%
  Impurity content, relative retention time 1.4: 0.28%
  Impurity content, relative retention time 1.41: 0.07%
  Impurity content, relative retention time 1.43: 0.06%
  Impurity content, relative retention time 1.49: 0.05%
  Total impurities: 2.78%
Form B, 60° C., 5 days
  Impurity content, relative retention time 0.77: 0.06%
  Impurity content, relative retention time 1.04: 2.18%
  Impurity content, relative retention time 1.4: 0.06%
  Total impurities: 2.3%
Form B, 60° C., 10 days
  Impurity content, relative retention time 1.04: 2.16%
  Impurity content, relative retention time 1.4: 0.12%
  Total impurities: 2.29%
[6]
  Impurity content, relative retention time not resolvable (one of 1.4 to 1.49): 0.17%
  Total impurities: 2.39%
[7]
  Impurity content, relative retention time 0.77: 0.2%
  Impurity content, relative retention time 1.04: 2.03%
  Total impurities: 2.23%
[8]
  Impurity content, relative retention time 0.77: 0.13%
  Impurity content, relative retention time 1.04: 2.08%
  Total impurities: 2.21%
[9]
  Impurity content, relative retention time 0.77: 0.16%
  Impurity content, relative retention time 1.04: 2.04%
  Total impurities: 2.2%
  Stability, conclusion in words: stable under high temperature and light conditions

From patent publication US11465986B2, “Crystal form of c-MET inhibitor and salt form thereof and preparation method therefor” (FUJIAN AKEYLINK BIOTECHNOLOGY CO., LTD., priority 2018, dated 2022)
